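Five concentrations, 48 hours, 96-well plates. GI50 = concentration required for 50% inhibition of growth.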 Calls of active or inactive are those of the source. Rule as the data show it: active = GI50 up to about 1.1 µM and inactive = higher.
Key:
Assay in all cases: DTP human tumour cell line panel, 48 h
MCF7 = test system: MCF7
786-0 = test system: 786-0
MOLT-4 = test system: MOLT-4
A549 = test system: A549
SF-268 = test system: SF-268
BT-549 = test system: BT-549
KM12 = test system: KM12
UACC-257 = test system: UACC-257
SF-295 = test system: SF-295
TK-10 = test system: TK-10
SNB-75 = test system: SNB-75
HT-29 = test system: HT-29
CCRF-CEM = test system: CCRF-CEM
MDA-N = test system: MDA-N
SK-MEL-5 = test system: SK-MEL-5
SK-MEL-2 = test system: SK-MEL-2
SF-539 = test system: SF-539
SNB-19 = test system: SNB-19
A498 = test system: A498

Row | SMILES | GI50 (MCF7) | GI50 (786-0) | GI50 (MOLT-4) | GI50 (A549) | GI50 (SF-268) | GI50 (BT-549) | GI50 (KM12) | GI50 (UACC-257) | GI50 (SF-295) | GI50 (TK-10) | GI50 (SNB-75) | GI50 (HT-29) | GI50 (CCRF-CEM) | GI50 (MDA-N) | GI50 (SK-MEL-5) | GI50 (SK-MEL-2) | GI50 (SF-539) | GI50 (SNB-19) | GI50 (A498)
1 | CCN(CC)C(=O)N1CN(c2ccccc2)C2(CCN(CCCSc3ccc(F)cc3)CC2)C1=O | 4.19 µM (inactive) | 12.8 µM (inactive) | 3.25 µM (inactive) | 18.8 µM (inactive) | 11.1 µM (inactive) | 13.5 µM (inactive) | 10.2 µM (inactive) | 3.32 µM (inactive) | 12.1 µM (inactive) | 10.3 µM (inactive) | 20.6 µM (inactive) | 2.85 µM (inactive) | 4.2 µM (inactive) | 6.15 µM (inactive) | 3.66 µM (inactive) | 7.16 µM (inactive) | 8.34 µM (inactive) | 9.79 µM (inactive) | –
2 | COc1cn2c(cc1=O)COc1ccc(-c3ccccc3)cc1-2 | 21.1 µM (inactive) | > 88.1 µM (inactive) | 44.5 µM (inactive) | 39.6 µM (inactive) | 60.8 µM (inactive) | 24.7 µM (inactive) | 52.1 µM (inactive) | 41 µM (inactive) | > 78.2 µM (inactive) | 20 µM (inactive) | 35.8 µM (inactive) | 45.4 µM (inactive) | – | 49.5 µM (inactive) | 23.5 µM (inactive) | > 100 µM (inactive) | – | 40 µM (inactive) | –
3 | OCCSCc1cc(Cl)cc(Cl)c1O | > 100 µM (inactive) | > 100 µM (inactive) | > 100 µM (inactive) | > 100 µM (inactive) | > 100 µM (inactive) | > 100 µM (inactive) | > 100 µM (inactive) | > 100 µM (inactive) | > 100 µM (inactive) | > 100 µM (inactive) | – | > 100 µM (inactive) | > 100 µM (inactive) | > 100 µM (inactive) | > 100 µM (inactive) | – | – | > 100 µM (inactive) | > 100 µM (inactive)
4 | CS(=O)(=O)C[S+]([O-])C[S+]([O-])C[S+]([O-])CC(NC(=O)CCC(N)C(=O)O)C(=O)O (stereo unspecified) | > 100 µM (inactive) | > 100 µM (inactive) | > 100 µM (inactive) | > 100 µM (inactive) | > 100 µM (inactive) | > 100 µM (inactive) | > 100 µM (inactive) | > 100 µM (inactive) | > 100 µM (inactive) | > 100 µM (inactive) | > 100 µM (inactive) | > 100 µM (inactive) | > 100 µM (inactive) | > 100 µM (inactive) | > 100 µM (inactive) | > 100 µM (inactive) | > 100 µM (inactive) | > 100 µM (inactive) | –
5 | CCOC(=O)/C(C(=O)c1ccc([N+](=O)[O-])cc1)=C(\NS(=O)(=O)c1cc(C)c(Cl)cc1[S-])[n+]1ccc(N(C)C)cc1 | 40.3 µM (inactive) | 30.3 µM (inactive) | 32.2 µM (inactive) | 38.8 µM (inactive) | 37.1 µM (inactive) | 35.5 µM (inactive) | 27.4 µM (inactive) | 6.47 µM (inactive) | 16.7 µM (inactive) | 18.7 µM (inactive) | – | 24 µM (inactive) | 31.4 µM (inactive) | 35.5 µM (inactive) | 42.8 µM (inactive) | 3.83 µM (inactive) | 21.5 µM (inactive) | – | 21.4 µM (inactive)
6 | O=C(N(O)c1ccccc1Cl)C(O)(c1ccccc1)c1ccccc1 | 56.8 µM (inactive) | 31.3 µM (inactive) | 30.8 µM (inactive) | 71.1 µM (inactive) | > 100 µM (inactive) | 60.1 µM (inactive) | 36.1 µM (inactive) | > 100 µM (inactive) | 30.4 µM (inactive) | 62.4 µM (inactive) | – | 85.7 µM (inactive) | 15.4 µM (inactive) | 67.1 µM (inactive) | 50.6 µM (inactive) | > 100 µM (inactive) | > 100 µM (inactive) | > 100 µM (inactive) | > 100 µM (inactive)
7 | COc1ccc(-c2oc3c(CC(=O)O)cccc3c(=O)c2OC)cc1 | > 100 µM (inactive) | > 100 µM (inactive) | > 100 µM (inactive) | > 100 µM (inactive) | > 100 µM (inactive) | > 100 µM (inactive) | – | > 100 µM (inactive) | > 100 µM (inactive) | > 100 µM (inactive) | – | > 100 µM (inactive) | > 100 µM (inactive) | > 100 µM (inactive) | > 100 µM (inactive) | > 100 µM (inactive) | > 100 µM (inactive) | – | > 100 µM (inactive)
8 | CC(C)(C)OC(=O)C(C#N)C(=O)c1ccc(C(=O)O)[nH]1 (stereo unspecified) | – | 51.9 µM (inactive) | 33.6 µM (inactive) | 35.9 µM (inactive) | 47.4 µM (inactive) | 48.5 µM (inactive) | 34.8 µM (inactive) | 30.2 µM (inactive) | 33.5 µM (inactive) | 29.7 µM (inactive) | 50.5 µM (inactive) | 39.2 µM (inactive) | 15 µM (inactive) | 40.4 µM (inactive) | 31 µM (inactive) | 23.6 µM (inactive) | 51.6 µM (inactive) | 41.5 µM (inactive) | 20.5 µM (inactive)
9 | O=C1/C(=C/c2ccc(Cl)cc2)CCCc2ccccc21 | 17.2 µM (inactive) | 17.3 µM (inactive) | 14.8 µM (inactive) | 21.3 µM (inactive) | 13.9 µM (inactive) | 20.3 µM (inactive) | 15.2 µM (inactive) | 28.8 µM (inactive) | 16.9 µM (inactive) | 21.6 µM (inactive) | 30.3 µM (inactive) | 4.67 µM (inactive) | 12.5 µM (inactive) | 17.1 µM (inactive) | – | 14.7 µM (inactive) | 17.9 µM (inactive) | 18.4 µM (inactive) | –
10 | N/C(CCSCCSCC/C(N)=N\O)=N\O | > 100 µM (inactive) | > 100 µM (inactive) | > 100 µM (inactive) | > 100 µM (inactive) | > 100 µM (inactive) | > 100 µM (inactive) | > 100 µM (inactive) | – | – | > 100 µM (inactive) | > 100 µM (inactive) | > 100 µM (inactive) | > 100 µM (inactive) | > 100 µM (inactive) | > 100 µM (inactive) | – | > 100 µM (inactive) | > 100 µM (inactive) | –
11 | CC1N[B@@-](C)(c2ccc(C(F)(F)F)cc2)OC1c1ccccc1 (stereo partly specified) | 59.7 µM (inactive) | > 100 µM (inactive) | 29.9 µM (inactive) | > 100 µM (inactive) | > 100 µM (inactive) | > 100 µM (inactive) | – | > 100 µM (inactive) | > 100 µM (inactive) | > 100 µM (inactive) | 32.6 µM (inactive) | 72.1 µM (inactive) | 42.6 µM (inactive) | > 100 µM (inactive) | 87.7 µM (inactive) | – | – | > 100 µM (inactive) | 58.9 µM (inactive)
12 | Cc1cc(CCC(=O)NCCNc2c3ccccc3nc3ccccc23)cc(C)c1O[Si](C)(C)C(C)(C)C | 0.242 µM (active) | 0.39 µM (active) | 0.414 µM (active) | 0.638 µM (active) | – | 1.72 µM (inactive) | 0.366 µM (active) | 2.01 µM (inactive) | 0.807 µM (active) | 1.63 µM (inactive) | – | 0.446 µM (active) | 0.38 µM (active) | 0.399 µM (active) | – | 1.91 µM (inactive) | 0.194 µM (active) | 1.85 µM (inactive) | 0.525 µM (active)

Source: ChEMBL document CHEMBL1201862, “PubChem BioAssay data set” (2004)
